Data taken from PubChem BioAssay AID1259411 (Chemical Carcinogenesis Research Information System (CCRIS), 2018).
The source made the active and inactive calls. No rule for the calls is given here.

Tested on: rodent carcinogenicity bioassays, tumor incidence
Experiment: CCRIS carcinogenicity studies
Outline: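 Archive of carcinogenicity, mutagenicity, tumor promotion and tumor inhibition results drawn from journals, NCI reports and other sources, expert-reviewed; covers 1985-2011 and is no longer updated.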

For CN(C)N, which carcinogen call (Species: HAMSTER, Strain/Sex: SYRIAN/FEMALE, Route: SUBCUTANEOUS, Dose: 0, 8, 17, 35 MG/KG BW IN 0.9% SALINE 1/WK FOR LIFE (STUDY DURATION: LIFE SPAN), Dose: 0, 8, 17, 35 MG/KG BW IN 0.9% SALINE 1/WK FOR LIFE (STUDY DURATION: LIFE SPAN)) is on record?
The carcinogen call was “inactive; negative”.

What about the carcinogen call (Species: HAMSTER, Strain/Sex: SYRIAN/MALE, Route: SUBCUTANEOUS, Dose: 0, 8, 17, 35 MG/KG BW IN 0.9% SALINE 1/WK FOR LIFE (STUDY DURATION: LIFE SPAN), Dose: 0, 8, 17, 35 MG/KG BW IN 0.9% SALINE 1/WK FOR LIFE (STUDY DURATION: LIFE SPAN)) of the same compound?
Its carcinogen call is “inactive; negative”.

What about the carcinogen call (Species: MOUSE, Route: ORAL, Tumor Site: Type of Lesion: LUNG, BLOOD VESSELS, LIVER, KIDNEY, Tumor Site: Type of Lesion: LUNG, BLOOD VESSELS, LIVER, KIDNEY) of the same compound?
Its carcinogen call is “active; positive”.

What does the source list for CCCCCCCCN(C)N=O?
carcinogen call (Species: HAMSTER, Strain/Sex: SYRIAN/FEMALE, Route: GAVAGE, Dose: 0, 7.4 MG/KG 1/WK FOR 40 WK (TOTAL DOSE: 0; 2.1 MMOL) (STUDY DURATION: LIFETIME), Dose: 0, 7.4 MG/KG 1/WK FOR 40 WK (TOTAL DOSE: 0; 2.1 MMOL) (STUDY DURATION: LIFETIME), Tumor Site: Type of Lesion: LIVER: HEPATOCELLULAR ADENOMA, LUNG: ALVEOLAR/BRONCHIAL ADENOMA, NASAL MUCOSA: ADENOMA, URINARY BLADDER: SARCOMA, UNDIFF, Tumor Site: Type of Lesion: LIVER: HEPATOCELLULAR ADENOMA, LUNG: ALVEOLAR/BRONCHIAL ADENOMA, NASAL MUCOSA: ADENOMA, URINARY BLADDER: SARCOMA, UNDIFF): active; positive; carcinogen call (Species: HAMSTER, Strain/Sex: SYRIAN/MALE, Route: GAVAGE, Dose: 0, 7.4 MG/KG 1/WK FOR 40 WK (TOTAL DOSE: 0; 2.1 MMOL) (STUDY DURATION: LIFETIME), Dose: 0, 7.4 MG/KG 1/WK FOR 40 WK (TOTAL DOSE: 0; 2.1 MMOL) (STUDY DURATION: LIFETIME), Tumor Site: Type of Lesion: LIVER: HEPATOCELLULAR ADENOMA, CHOLANGIOMA, HEMANGIOSARCOMA, LUNG: ALVEOLAR/ BRONCHIAL ADENOMA, NASAL MUCOSA: ADENOMA, U, Tumor Site: Type of Lesion: LIVER: HEPATOCELLULAR ADENOMA, CHOLANGIOMA, HEMANGIOSARCOMA, LUNG: ALVEOLAR/ BRONCHIAL ADENOMA, NASAL MUCOSA: ADENOMA, U): active; positive; carcinogen call (Species: RAT, Strain/Sex: F344/MALE, Route: GAVAGE, Dose: 0, 93 MG/ML IN CORN OIL 2/WK FOR 30 WK, STUDY DURATION: 50 WK, Dose: 0, 93 MG/ML IN CORN OIL 2/WK FOR 30 WK, STUDY DURATION: 50 WK, Tumor Site: Type of Lesion: LUNG: ADENOCARCINOMA, ADENOMA, NASAL CAVITY: CARCINOMA, LIVER: HEPATOCELLULAR TUMOR, BLADDER, Tumor Site: Type of Lesion: LUNG: ADENOCARCINOMA, ADENOMA, NASAL CAVITY: CARCINOMA, LIVER: HEPATOCELLULAR TUMOR, BLADDER): active; positive

What does the source list for Nc1ccc([N+](=O)[O-])cc1N?
carcinogen call (Species: MOUSE, Strain/Sex: B6C3F1/FEMALE, Route: ORAL, Dose: 0, 3750, 7500 PPM IN DIET, Dose: 0, 3750, 7500 PPM IN DIET): inactive; negative; carcinogen call (Species: MOUSE, Strain/Sex: B6C3F1/MALE, Route: ORAL, Dose: 0, 3750, 7500 PPM IN DIET, Dose: 0, 3750, 7500 PPM IN DIET): inactive; negative; carcinogen call (Species: RAT, Strain/Sex: F344/FEMALE, Route: ORAL, Dose: 0, 375, 750 PPM IN DIET, Dose: 0, 375, 750 PPM IN DIET): inactive; negative; carcinogen call (Species: RAT, Strain/Sex: F344/MALE, Route: ORAL, Dose: 0, 375, 750 PPM IN DIET, Dose: 0, 375, 750 PPM IN DIET): inactive; negative

CS(=O)(=O)c1ccc([C@@H](O)[C@@H](CO)NC(=O)C(Cl)Cl)cc1 was tested. Which carcinogen call (Species: RAT, Strain/Sex: F344/FEMALE, Route: ORAL, Dose: 0, 125, 250 PPM IN DRINKING WATER FOR 104 WK (STUDY DURATION: 108 WK), Dose: 0, 125, 250 PPM IN DRINKING WATER FOR 104 WK (STUDY DURATION: 108 WK)) did it give?
The carcinogen call was “inactive; negative”.

What about the carcinogen call (Species: RAT, Strain/Sex: F344/MALE, Route: ORAL, Dose: 0, 125, 250 PPM IN DRINKING WATER FOR 104 WK (STUDY DURATION: 108 WK), Dose: 0, 125, 250 PPM IN DRINKING WATER FOR 104 WK (STUDY DURATION: 108 WK)) of the same compound?
Its carcinogen call is “inactive; negative”.

How did the carcinogen call (Species: RAT, Strain/Sex: OSBORNE-MENDEL/FEMALE, Route: LUNG IMPLANT, Dose: 0, 0.2, 1.0, 5.0 MG IN BEESWAX/TRICAPRYLIN (STUDY DURATION: LIFETIME), Dose: 0, 0.2, 1.0, 5.0 MG IN BEESWAX/TRICAPRYLIN (STUDY DURATION: LIFETIME)) turn out when c1ccc2nc3ccccc3cc2c1 was run?
The carcinogen call was “inactive; negative”.

Which carcinogen call (Species: MOUSE, Strain/Sex: CD-1/FEMALE, Route: INTRAPERITONEAL, ORAL, Dose: 0, 5 µL OF A 21.7 MG/ML SOLUTION IN DMSO ON DAYS 1, 3, 5, 7, 10, 13, 17, 21, 24 AND 28 OF LIFE THEN 2/WK TO WK 10 FOLLOW, Tumor Site: Type of Lesion: LIVER: CARCINOMA) does the source give for Cn1c(N)nc2c3ccc(=O)[nH]c3ccc21 here?
The carcinogen call was “active; positive”.

And the carcinogen call (Species: MOUSE, Strain/Sex: CD-1/MALE, Route: INTRAPERITONEAL, ORAL, Dose: 0, 5 µL OF A 21.7 MG/ML SOLUTION IN DMSO ON DAYS 1, 3, 5, 7, 10, 13, 17, 21, 24 AND 28 OF LIFE THEN 2/WK TO WK 10 FOLLOW)?
Its carcinogen call is “inactive; negative”.

And the carcinogen call (Species: RAT, Strain/Sex: F344/MALE, Route: INTRARECTAL, Dose: 0, 54.8 MG/KG IN 1.7 ML/KG DMSO INFUSED 3/WK FOR 2 MO THEN 2/WK FOR DURATION OF STUDY (STUDY DURATION: 21 MO))?
Its carcinogen call is “inactive; negative”.

What does the source list for ClC1=C(Cl)C2(Cl)C3C(Cl)C=CC3C1(Cl)C2(Cl)Cl (stereo not drawn)?
carcinogen call (Species: MOUSE, Strain/Sex: B6C3F1/FEMALE, Route: ORAL, Dose: 0, 9, 18 PPM IN DIET, Dose: 0, 9, 18 PPM IN DIET, Tumor Site: Type of Lesion: LIVER: HEPATOCELLULAR CARCINOMA): active; positive; carcinogen call (Species: MOUSE, Strain/Sex: B6C3F1/MALE, Route: ORAL, Dose: 0, 6.1, 13.8 PPM IN DIET, TWA, Dose: 0, 6.1, 13.8 PPM IN DIET, TWA, Tumor Site: Type of Lesion: LIVER: HEPATOCELLULAR CARCINOMA): active; positive; carcinogen call (Species: RAT, Strain/Sex: OSBORNE-MENDEL/FEMALE, Route: ORAL, Dose: 0, 25.7, 51.3 PPM IN DIET FOR 80 WK (STUDY DURATION: 111 WK), Dose: 0, 25.7, 51.3 PPM IN DIET FOR 80 WK (STUDY DURATION: 111 WK), Tumor Site: Type of Lesion: THYROID GLAND: FOLLICULAR CELL CARCINOMA OR ADENOMA): equivocal; carcinogen call (Species: RAT, Strain/Sex: OSBORNE-MENDEL/MALE, Route: ORAL, Dose: 0, 38.9, 77.9 PPM IN DIET, TWA, Dose: 0, 38.9, 77.9 PPM IN DIET, TWA): inactive; negative

With Cc1cc(=O)[nH]c(=S)[nH]1 as the compound, how does the carcinogen call (Species: HAMSTER, Route: ORAL, Tumor Site: Type of Lesion: THYROID GLAND) read?
The carcinogen call was “active; positive”.

What about the carcinogen call (Species: MOUSE, Route: ORAL, Tumor Site: Type of Lesion: THYROID GLAND) of the same compound?
Its carcinogen call is “active; positive”.

What about the carcinogen call (Species: RAT, Route: ORAL, Tumor Site: Type of Lesion: KIDNEY, THYROID GLAND) of the same compound?
The carcinogen call was “active; positive”.
